Converted amounts (≈) assume the structure as drawn. Like-named read-outs stand apart in the source and are kept apart here.
Experiments:
Assay type in all cases: cell-based
[1] = tested on: Botrytis cinerea mutant Y208H; assay: Activity against Botrytis cinerea in the microtiter test, mutant Y208H; details: for IC50: Botrytis cinerea, MUTANTY208H, 168 h, read-out: Absolute IC50, Y208H, Botrytis cinerea mutant Y208H
From the text: (§1) The active substances were formulated separately as a stock solution in dimethyl sulfoxide (DMSO) at a concentration of 10 000 ppm.
(§2) Spontaneous mutants were selected by plating out B. cinerea spores (in the range of 10^7-10^8) on DOB agar plates (3.4 g/l YNB (Becton Dickinson), 10 g/l Ammoniumsulfat, 40 g/l Glucose, 20 g/l Agar), amended with different lethal concentrations of active ingredient. After 7-14 days growing colonies were transferred to DOB agar plates, amended with the same lethal concentrations of active ingredient and then further propagated on Oatmeal agar medium (50 g/l Oatmeal agar (Sigma), 15 g/l Agar (Difco) for sensitivity testing.
(§3) Fungal strains used: • a) Botrytis cinerea (sensitive, wild-type) • b) Various mutants of Botrytis cinerea
(§4) The spores of Botrytis cinerea were harvested with a cotton swab from an Oatmeal agar plate (50 g/l Oatmealagar (Sigma, Art.O-3506), 15 g/l agar, (Difco) and this is dipped in 3 ml of double concentrated DOB-medium (3.4 g/l YNB (Becton Dickinson), 10 g/l Ammoniumsulfat, 40 g/l Glucose, adjusted to pH 7) and the spore suspension is adjusted to a spore density of 3.2×10^4 spores/ml. The compound solutions were diluted from stock solution in (dimethylsulfoxide) DMSO in several steps with sterile deionized water before use. High test concentrations were 50 mg/L (ppm) or 31 mg/L (ppm). Compound solutions were transferred into empty microplates and filled up with an equal amount of spore suspension.
(§5) The antifungal activity was determined by measuring the turbidity of a culture in 96-well microplates in the presence of test compounds after 7 days incubation at 620 nm. A blank value for each concentration (growth media+compound, without spores) are subtracted from the spore suspension. The relative antifungal activity was calculated by comparing the effect of the test compounds with the effect of a DMSO control The results are shown in Table IV (for compounds of general formula I.A), VI (for compounds of general formula I.B), and VIII (for compounds of general formula I.C).
(§6) A compound showing an IC50 (MUT) above the IC50 (WT) and showing an IC50 (MUT) to IC50 (WT) ratio being in a range above 100 is considered unsuitable (“I”) as DHODH inhibitor.
(§7) The absolute IC50-values (concentration of test compound resulting in 50% inhibition of fungal growth) were calculated from the resulting dose-response for each compound and strain.

[2] = tested on: Botrytis cinerea mutant V195F; assay: Activity against Botrytis cinerea in the microtiter test, mutant V195F; details: for IC50: Botrytis cinerea, MUTANTV195F, 168 h, read-out: Absolute IC50, V195F, Botrytis cinerea mutant V195F
From the text: as §1, §2, §3, §4, §5, §6, §7

[3] = tested on: Botrytis cinerea (sensitive, wild-type); assay: Activity against Botrytis cinerea in the microtiter test, wild type; details: turbidity at 620 nm after 7 days; for IC50: 168 h, read-out: Absolute IC50, wild type
Method: as §1, §3, §4, §5, §7

[4] = tested on: Botrytis cinerea mutant G111E; assay: Activity against Botrytis cinerea in the microtiter test, mutant G111E; details: for IC50: Botrytis cinerea, MUTANTG111E, 168 h, read-out: Absolute IC50, G111E, Botrytis cinerea mutant G111E
From the text: as §1, §2, §3, §4, §5, §6, §7

[5] = tested on: Botrytis cinerea mutant H108P; assay: Activity against Botrytis cinerea in the microtiter test, mutant H108P; details: for IC50: Botrytis cinerea, MUTANTH108P, 168 h, read-out: Absolute IC50, H108P, Botrytis cinerea mutant H108P
From the text: as §1, §2, §3, §4, §5, §6, §7

[6] = tested on: Botrytis cinerea mutant G111V; assay: Activity against Botrytis cinerea in the microtiter test, mutant G111V; details: for IC50: Botrytis cinerea, MUTANTG111V, 168 h, read-out: Absolute IC50, G111V, Botrytis cinerea mutant G111V
From the text: as §1, §2, §3, §4, §5, §6, §7

[7] = turbidity at 620 nm after 7 days

4-[6-(difluoromethyl)-5-methyl-3-pyridyl]-8-fluoro-2,2-dimethyl-1H-quinazoline [compound 44]
Absolute IC50, Y208H ([1]; Botrytis cinerea mutant Y208H, turbidity at 620 nm after 7 days): 1.64 ppm | Absolute IC50, V195F ([2]; Botrytis cinerea mutant V195F, turbidity at 620 nm after 7 days): 0.03 ppm | Absolute IC50, wild type [3]: 0.01 ppm | Absolute IC50, G111E ([4]; Botrytis cinerea mutant G111E, turbidity at 620 nm after 7 days): 0.08 ppm | Absolute IC50, H108P ([5]; Botrytis cinerea mutant H108P, turbidity at 620 nm after 7 days): 0.50 ppm | Absolute IC50, G111V ([6]; Botrytis cinerea mutant G111V, turbidity at 620 nm after 7 days): 0.73 ppm

Cc1cc(C2=NC3(CCC3)Oc3c2cccc3C(C)(C)C)cnc1C [Ex-14]
Relative antifungal activity expressed as IC50, Y208H ([1]; {}): AA AA AA AA AA | Relative antifungal activity expressed as IC50, V195F ([2]; {}): AA AA AA AA AA | Relative antifungal activity expressed as IC50, G111E ([4]; {}): AA AA AA AA AA | Relative antifungal activity expressed as IC50, G111V ([6]; {}): AA AA AA AA AA

Cc1cc(C2=NC(C)(C)Oc3c2cccc3C(C)(C)C)cnc1C [Ex-15]
Relative antifungal activity expressed as IC50, V195F ([2]; {}): AA AA AA | Relative antifungal activity expressed as IC50, G111V ([6]; {}): AA AA AA

Cc1cc(C2=NC(C(C)(C)C)Oc3ccccc32)cnc1C (stereo not drawn) [Ex-18]
Relative antifungal activity expressed as IC50, V195F ([2]; {}): AA AA AA AA | Relative antifungal activity expressed as IC50, G111E ([4]; {}): AA AA AA AA | Relative antifungal activity expressed as IC50, G111V ([6]; {}): AA AA AA AA

Cc1cc(C2=NC3(CCCC3)Oc3ccccc32)cnc1C(F)F [Ex-24]
IC50 [2, 7]: 0.69 µg/mL (≈ 2.1 µM) | IC50 [3]: 0.35 µg/mL (≈ 1.07 µM) | IC50 [4, 7]: 15.3 µg/mL (≈ 46.6 µM) | IC50 [5, 7]: 0.98 µg/mL (≈ 2.98 µM) | IC50 [6, 7]: 1.31 µg/mL (≈ 3.99 µM)

Cc1cc(C2=NC3(CCC3)Oc3ccccc32)cnc1C(F)F [Ex-25, 4-[6-(difluoromethyl)-5-methyl-3-pyridyl]spiro[1,3-benzoxazine-2,1′-cyclobutane]]
IC50 [1, 7]: 0.28 µg/mL (≈ 0.891 µM) | IC50 [2, 7]: 0.08 µg/mL (≈ 0.255 µM) | IC50 [3]: 0.05 µg/mL (≈ 0.159 µM) | IC50 [5, 7]: 0.02 µg/mL (≈ 0.0636 µM) | IC50 [6, 7]: 0.03 µg/mL (≈ 0.0954 µM)

Cc1cc(C2=NC3(COC3)Oc3ccccc32)cnc1C [Ex-26]
Relative antifungal activity expressed as IC50, V195F ([2]; {}): AA AA AA AA | Relative antifungal activity expressed as IC50, G111E ([4]; {}): AA AA AA AA | Relative antifungal activity expressed as IC50, G111V ([6]; {}): AA AA AA AA

Cc1cc(C2=NC3(CCC3)Oc3c(F)cccc32)cnc1C [Ex-29]
IC50 [1, 7]: 0.93 µg/mL (≈ 3.14 µM) | IC50 [2, 7]: 0.02 µg/mL (≈ 0.0675 µM) | IC50 ([3]; Botrytis cinerea): 0.02 µg/mL (≈ 0.0675 µM) | IC50 [4, 7]: 2.34 µg/mL (≈ 7.9 µM) | IC50 [5, 7]: 0.02 µg/mL (≈ 0.0675 µM) | IC50 [6, 7]: 0.04 µg/mL (≈ 0.135 µM)

Cc1cc(C2=NC3(CCC3)Oc3ccccc32)cnc1C [Ex-32]
IC50 [1, 7]: 1.23 µg/mL (≈ 4.42 µM) | Absolute IC50, V195F ([2]; {}): 0.13 ppm | IC50 ([3]; Botrytis cinerea): 0.12 µg/mL (≈ 0.431 µM) | Absolute IC50, G111E ([4]; {}): 2.34 ppm | Absolute IC50, H108P ([5]; {}): 0.07 ppm | Absolute IC50, G111V ([6]; {}): 2.85 ppm

COc1ccc2c(c1)OC1(CCC1)N=C2c1cnc(C(F)F)c(C)c1 [Ex-37]
IC50 [2, 7]: 0.11 µg/mL (≈ 0.319 µM) | IC50 [3]: 0.03 µg/mL (≈ 0.0871 µM) | IC50 [4, 7]: 0.54 µg/mL (≈ 1.57 µM) | IC50 [5, 7]: 0.06 µg/mL (≈ 0.174 µM) | IC50 [6, 7]: 0.09 µg/mL (≈ 0.261 µM)

Cc1cc(C2=NC(C)(C)Nc3ccccc32)cnc1C [compound 39]
Relative antifungal activity expressed as IC50, V195F ([2]; {}): AA AA AA AA | Relative antifungal activity expressed as IC50, G111E ([4]; {}): AA AA AA AA | Relative antifungal activity expressed as IC50, G111V ([6]; {}): AA AA AA AA

Cc1ccc(S(=O)(=O)N2c3ccccc3C(c3cnc(C)c(C)c3)=NC2(C)C)cc1 [compound 42]
Relative antifungal activity expressed as IC50, V195F ([2]; {}): AA AA AA AA | Relative antifungal activity expressed as IC50, G111E ([4]; {}): AA AA AA AA | Relative antifungal activity expressed as IC50, G111V ([6]; {}): AA AA AA AA

CCN1c2c(F)cccc2C(c2cnc(C(F)F)c(C)c2)=NC1(C)C [compound 45]
IC50 [1, 7]: 0.27 µg/mL (≈ 0.777 µM) | IC50 [2, 7]: 0.02 µg/mL (≈ 0.0576 µM) | IC50 [3]: 0.01 µg/mL (≈ 0.0288 µM) | IC50 [4, 7]: 0.57 µg/mL (≈ 1.64 µM) | IC50 [5, 7]: 0.4 µg/mL (≈ 1.15 µM) | IC50 [6, 7]: 0.96 µg/mL (≈ 2.76 µM)

Cc1cc(C2=NCC(C)(C)Oc3ccccc32)cnc1C [compound 47]
IC50 [1, 7]: 1.9 µg/mL (≈ 6.78 µM) | IC50 [2, 7]: 0.02 µg/mL (≈ 0.0713 µM) | IC50 ([3]; Botrytis cinerea): 0.04 µg/mL (≈ 0.143 µM) | IC50 [4, 7]: 2.47 µg/mL (≈ 8.81 µM) | IC50 [5, 7]: 0.83 µg/mL (≈ 2.96 µM) | IC50 [6, 7]: 0.55 µg/mL (≈ 1.96 µM)

Cc1cc(C2=NC(C)(C)C(C)(C)Oc3ccccc32)cnc1C(F)F [compound 49]
IC50 [1, 7]: 0.97 µg/mL (≈ 2.82 µM) | IC50 [2, 7]: 0.01 µg/mL (≈ 0.029 µM) | IC50 [3]: 0.01 µg/mL (≈ 0.029 µM) | IC50 [4, 7]: 2.35 µg/mL (≈ 6.82 µM) | IC50 [5, 7]: 0.32 µg/mL (≈ 0.929 µM) | IC50 [6, 7]: 0.7 µg/mL (≈ 2.03 µM)

Cc1cc(C2=NC(C)(C)COc3ccccc32)cnc1C [compound 51]
Relative antifungal activity expressed as IC50, V195F ([2]; {}): AA AA AA | Relative antifungal activity expressed as IC50, G111V ([6]; {}): AA AA AA

CC(C)(C)C1(C)N=C(c2cnc3c(F)cccc3c2)c2ccccc2O1 (stereo not drawn) [drawing 117, reference compound]
IC50 [2, 7]: > 31 µg/mL | IC50 [3]: 0.07 µg/mL (≈ 0.201 µM)

Cc1cc(C2=NC3(CCC3)Oc3ccccc32)cnc1C [drawing 125, reference compound]
Absolute IC50, Y208H ([1]; {}): 1.43 ppm | Absolute IC50, V195F ([2]; {}): 2.99 ppm | Absolute IC50, wild type [3]: 0.11 ppm | Absolute IC50, G111E ([4]; {}): 10.94 ppm | Absolute IC50, H108P ([5]; {}): 0.25 ppm | Absolute IC50, G111V ([6]; {}): 0.25 ppm

CC1(c2ccccc2)N=C(c2cnc3c(F)cccc3c2)c2cccc(F)c2O1 (stereo not drawn) [drawing 127, reference compound]
IC50 [2, 7]: 15.5 µg/mL (≈ 40.2 µM) | IC50 ([3]; Botrytis cinerea): 0.04 µg/mL (≈ 0.104 µM)

COc1ccc2c(c1)OC(C)(C)N=C2c1cnc2c(F)cccc2c1 [drawing 129, reference compound]
IC50 [2, 7]: 5.28 µg/mL (≈ 15.7 µM) | IC50 ([3]; Botrytis cinerea): 0.01 µg/mL (≈ 0.0297 µM)

CCN1c2c(F)cccc2C(c2cnc3c(F)cccc3c2)=NC1(C)C [drawing 141, reference compound]
IC50 [2, 7]: > 31 µg/mL | IC50 [3]: 0.02 µg/mL (≈ 0.0569 µM)

CC1(C)N=C(c2cnc3c(F)cccc3c2)c2ccccc2OC1(C)C [drawing 163, reference compound]
IC50 [2, 7]: 2.84 µg/mL (≈ 8.15 µM) | IC50 ([3]; Botrytis cinerea): 0.001 µg/mL (≈ 0.00287 µM)

Fc1cccc2cc(C3=NC4(CCCC4)Oc4ccccc43)cnc12 [reference compound]
IC50 [2, 7]: 10.9 µg/mL (≈ 32.8 µM) | IC50 ([3]; Botrytis cinerea): 0.05 µg/mL (≈ 0.15 µM)

Fc1cccc2c1OC1(CCC1)N=C2c1cnc2ccccc2c1 [reference compound]
IC50 [1, 7]: 1.59 µg/mL (≈ 4.99 µM) | IC50 [2, 7]: 24.1 µg/mL (≈ 75.9 µM) | IC50 [3]: 0.03 µg/mL (≈ 0.0942 µM) | IC50 [4, 7]: 9.48 µg/mL (≈ 29.8 µM) | IC50 [5, 7]: 0.11 µg/mL (≈ 0.346 µM) | IC50 [6, 7]: 0.14 µg/mL (≈ 0.44 µM)

CC1(C)N=C(c2cnc3c(F)cccc3c2)c2cccc(F)c2N1 [reference compound]
IC50 [2, 7]: 4.42 µg/mL (≈ 13.7 µM) | IC50 ([3]; Botrytis cinerea): 0.005 µg/mL (≈ 0.0155 µM)

CC1(C)CN=C(c2cnc3ccccc3c2)c2ccccc2O1 [reference compound]
IC50 [2, 7]: 19.5 µg/mL (≈ 64.6 µM) | IC50 ([3]; Botrytis cinerea): 0.001 µg/mL (≈ 0.00331 µM)
